Tested on: 422866-222-R5-J1-PDC complex spheroid viability
Experiment: Anticancer human tumor 422866-222-R5-J1-PDC patient-derived pancreatic adenocarcinoma cell line growth inhibition [POLQ]
Conditions: for IC50: curve of first compound; for viability, T/C: stronger effect = lower value
Procedure, shortened: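 Complex spheroid viability model combining PDC tumour cells with endothelial (HUVEC) and MSC stromal cells. Novobiocin, ART-558 or RP6685 were tested singly and in combination with standard and investigational anticancer drugs. Each was titrated in half-log steps from near clinical Cmax, or from 10 microM where Cmax was unknown.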

[1] = second compound 0.0316 µM, first compound 0.0316 µM
[2] = second compound 0.0316 µM, first compound 0.1 µM
[3] = second compound 0.0316 µM, first compound 0.316 µM
[4] = second compound 0.0316 µM, first compound 1 µM
[5] = second compound 0.1 µM, first compound 0.0316 µM
[6] = second compound 0.1 µM, first compound 0.1 µM
[7] = second compound 0.1 µM, first compound 0.316 µM
[8] = second compound 0.1 µM, first compound 1 µM
[9] = second compound 0.316 µM, first compound 0.0316 µM
[10] = second compound 0.316 µM, first compound 0.1 µM
[11] = second compound 0.316 µM, first compound 0.316 µM
[12] = second compound 0.316 µM, first compound 1 µM
[13] = second compound 1 µM, first compound 0.0316 µM
[14] = second compound 1 µM, first compound 0.1 µM
[15] = second compound 1 µM, first compound 0.316 µM
[16] = second compound 1 µM, first compound 1 µM
[17] = second compound 3.16 µM, first compound 0.0316 µM
[18] = second compound 3.16 µM, first compound 0.1 µM
[19] = second compound 3.16 µM, first compound 0.316 µM
[20] = second compound 3.16 µM, first compound 1 µM
[21] = second compound 10 µM, first compound 0.0316 µM
[22] = second compound 10 µM, first compound 0.1 µM
[23] = second compound 10 µM, first compound 0.316 µM
[24] = second compound 10 µM, first compound 1 µM
[25] = second compound 0.0316 µM, first compound 3.16 µM
[26] = second compound 0.0316 µM, first compound 10 µM
[27] = second compound 0.1 µM, first compound 3.16 µM
[28] = second compound 0.1 µM, first compound 10 µM
[29] = second compound 0.316 µM, first compound 3.16 µM
[30] = second compound 0.316 µM, first compound 10 µM
[31] = second compound 1 µM, first compound 3.16 µM
[32] = second compound 1 µM, first compound 10 µM
[33] = second compound 3.16 µM, first compound 3.16 µM
[34] = second compound 3.16 µM, first compound 10 µM
[35] = second compound 10 µM, first compound 3.16 µM
[36] = second compound 10 µM, first compound 10 µM
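Note: spheroids exposed to compounds for one week before readout.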
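Throughout, for viability, T/C: percent of DMSO vehicle wells luminescence so 100% = untreated viability.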

## CCc1c2c(nc3ccc(O)cc13)-c1cc3c(c(=O)n1C2)COC(=O)[C@]3(O)CC + Nc1ccc(C#CCN(C(=O)Cc2ncc(C(F)(F)F)cc2C(F)(F)F)c2ccc(F)cc2)nn1
Second compound 0.0316 µM
  IC50: < 3.16 nM
Second compound 0.1 µM
  IC50: < 3.16 nM
Second compound 0.316 µM
  IC50: < 3.16 nM
Second compound 1 µM
  IC50: < 3.16 nM
Second compound 3.16 µM
  IC50: < 3.16 nM
Second compound 10 µM
  IC50: < 3.16 nM
Second compound 0.0316 µM, first compound 0.00316 µM
  viability, T/C: 40%
Second compound 0.0316 µM, first compound 0.01 µM
  viability, T/C: 32.4%
[1]
  viability, T/C: 33.4%
[2]
  viability, T/C: 33%
[3]
  viability, T/C: 35%
[4]
  viability, T/C: 16.2%
Second compound 0.1 µM, first compound 0.00316 µM
  viability, T/C: 39.4%
Second compound 0.1 µM, first compound 0.01 µM
  viability, T/C: 37.8%
[5]
  viability, T/C: 35%
[6]
  viability, T/C: 32.4%
[7]
  viability, T/C: 32.8%
[8]
  viability, T/C: 20.6%
Second compound 0.316 µM, first compound 0.00316 µM
  viability, T/C: 35.8%
Second compound 0.316 µM, first compound 0.01 µM
  viability, T/C: 38%
[9]
  viability, T/C: 34.8%
[10]
  viability, T/C: 33.3%
[11]
  viability, T/C: 33%
[12]
  viability, T/C: 16.9%
Second compound 1 µM, first compound 0.00316 µM
  viability, T/C: 38.4%
Second compound 1 µM, first compound 0.01 µM
  viability, T/C: 32.3%
[13]
  viability, T/C: 32.7%
[14]
  viability, T/C: 31%
[15]
  viability, T/C: 30.5%
[16]
  viability, T/C: 21.7%
Second compound 3.16 µM, first compound 0.00316 µM
  viability, T/C: 36.2%
Second compound 3.16 µM, first compound 0.01 µM
  viability, T/C: 31.6%
[17]
  viability, T/C: 29.4%
[18]
  viability, T/C: 32.7%
[19]
  viability, T/C: 39.1%
[20]
  viability, T/C: 23.1%
Second compound 10 µM, first compound 0.00316 µM
  viability, T/C: 38.6%
Second compound 10 µM, first compound 0.01 µM
  viability, T/C: 35%
[21]
  viability, T/C: 36.9%
[22]
  viability, T/C: 28.7%
[23]
  viability, T/C: 31.2%
[24]
  viability, T/C: 18.6%

## CCCS(=O)(=O)Nc1ccc(F)c(C(=O)c2c[nH]c3ncc(-c4ccc(Cl)cc4)cc23)c1F + Nc1ccc(C#CCN(C(=O)Cc2ncc(C(F)(F)F)cc2C(F)(F)F)c2ccc(F)cc2)nn1
Second compound 0.0316 µM
  IC50: > 10000 nM
Second compound 0.1 µM
  IC50: > 10000 nM
Second compound 0.316 µM
  IC50: > 10000 nM
Second compound 1 µM
  IC50: > 10000 nM
Second compound 3.16 µM
  IC50: > 10000 nM
Second compound 10 µM
  IC50: > 10000 nM
[1]
  viability, T/C: 101%
[2]
  viability, T/C: 103%
[3]
  viability, T/C: 107%
[4]
  viability, T/C: 181%
[25]
  viability, T/C: 197%
[26]
  viability, T/C: 118%
[5]
  viability, T/C: 115%
[6]
  viability, T/C: 107%
[7]
  viability, T/C: 115%
[8]
  viability, T/C: 182%
[27]
  viability, T/C: 173%
[28]
  viability, T/C: 118%
[9]
  viability, T/C: 105%
[10]
  viability, T/C: 96.4%
[11]
  viability, T/C: 113%
[12]
  viability, T/C: 162%
[29]
  viability, T/C: 164%
[30]
  viability, T/C: 129%
[13]
  viability, T/C: 103%
[14]
  viability, T/C: 112%
[15]
  viability, T/C: 125%
[16]
  viability, T/C: 133%
[31]
  viability, T/C: 193%
[32]
  viability, T/C: 113%
[17]
  viability, T/C: 107%
[18]
  viability, T/C: 124%
[19]
  viability, T/C: 138%
[20]
  viability, T/C: 127%
[33]
  viability, T/C: 153%
[34]
  viability, T/C: 114%
[21]
  viability, T/C: 125%
[22]
  viability, T/C: 138%
[23]
  viability, T/C: 166%
[24]
  viability, T/C: 154%
[35]
  viability, T/C: 166%
[36]
  viability, T/C: 96.7%

## C=CC(=O)N1CCN(c2nc(=O)n(-c3c(C)ccnc3C(C)C)c3nc(-c4c(O)cccc4F)c(F)cc23)C(C)C1 (stereo not drawn) + Cc1cccc(N(C)C(=O)C2C(O)CCN2c2nc(C)cc(C(F)(F)F)c2C#N)c1
Second compound 0.0316 µM
  IC50: < 31.6 nM
Second compound 0.1 µM
  IC50: < 31.6 nM
Second compound 0.316 µM
  IC50: < 31.6 nM
Second compound 1 µM
  IC50: < 31.6 nM
Second compound 3.16 µM
  IC50: < 31.6 nM
Second compound 10 µM
  IC50: < 31.6 nM
[1]
  viability, T/C: 29.6%
[2]
  viability, T/C: 26.5%
[3]
  viability, T/C: 24.8%
[4]
  viability, T/C: 22.2%
[25]
  viability, T/C: 23.5%
[26]
  viability, T/C: 27%
[5]
  viability, T/C: 27.8%
[6]
  viability, T/C: 25.2%
[7]
  viability, T/C: 25%
[8]
  viability, T/C: 23.5%
[27]
  viability, T/C: 21.2%
[28]
  viability, T/C: 29.3%
[9]
  viability, T/C: 34.9%
[10]
  viability, T/C: 22.1%
[11]
  viability, T/C: 25.3%
[12]
  viability, T/C: 26%
[29]
  viability, T/C: 22.8%
[30]
  viability, T/C: 25.5%
[13]
  viability, T/C: 30.3%
[14]
  viability, T/C: 25.7%
[15]
  viability, T/C: 26.1%
[16]
  viability, T/C: 21.8%
[31]
  viability, T/C: 26.7%
[32]
  viability, T/C: 27.4%
[17]
  viability, T/C: 32.3%
[18]
  viability, T/C: 28.7%
[19]
  viability, T/C: 31.4%
[20]
  viability, T/C: 25.9%
[33]
  viability, T/C: 23.7%
[34]
  viability, T/C: 25.7%
[21]
  viability, T/C: 35.3%
[22]
  viability, T/C: 28%
[23]
  viability, T/C: 25.1%
[24]
  viability, T/C: 26%
[35]
  viability, T/C: 32%
[36]
  viability, T/C: 28.3%

## CC1COCCN1c1cc(C2(O)CC3CCC(C2)O3)c2cnn(-c3ccn[nH]3)c2n1 (stereo not drawn) + Nc1ccc(C#CCN(C(=O)Cc2ncc(C(F)(F)F)cc2C(F)(F)F)c2ccc(F)cc2)nn1
Second compound 0.0316 µM
  IC50: > 10000 nM
Second compound 0.1 µM
  IC50: < 31.6 nM
Second compound 0.316 µM
  IC50: < 31.6 nM
Second compound 1 µM
  IC50: > 10000 nM
Second compound 3.16 µM
  IC50: 10000 nM
Second compound 10 µM
  IC50: < 31.6 nM
[1]
  viability, T/C: 72%
[2]
  viability, T/C: 39.4%
[3]
  viability, T/C: 40.7%
[4]
  viability, T/C: 74.5%
[25]
  viability, T/C: 73.5%
[26]
  viability, T/C: 61.1%
[5]
  viability, T/C: 58.2%
[6]
  viability, T/C: 39.4%
[7]
  viability, T/C: 48.5%
[8]
  viability, T/C: 71.6%
[27]
  viability, T/C: 83.6%
[28]
  viability, T/C: 63.8%
[9]
  viability, T/C: 61.3%
[10]
  viability, T/C: 37%
[11]
  viability, T/C: 42.2%
[12]
  viability, T/C: 74.8%
[29]
  viability, T/C: 73.8%
[30]
  viability, T/C: 59.9%
[13]
  viability, T/C: 64.3%
[14]
  viability, T/C: 39.5%
[15]
  viability, T/C: 37.3%
[16]
  viability, T/C: 71.4%
[31]
  viability, T/C: 65.5%
[32]
  viability, T/C: 57.9%
[17]
  viability, T/C: 97.4%
[18]
  viability, T/C: 38.7%
[19]
  viability, T/C: 36.9%
[20]
  viability, T/C: 77.2%
[33]
  viability, T/C: 63.2%
[34]
  viability, T/C: 69%
[21]
  viability, T/C: 60.7%
[22]
  viability, T/C: 41.5%
[23]
  viability, T/C: 47.1%
[24]
  viability, T/C: 83.8%
[35]
  viability, T/C: 65.3%
[36]
  viability, T/C: 63.4%

— PubChem BioAssay AID1963844 (Molecular Pharmacology Branch, DTP, NCI, 2024)
